{"source": "patent US10441681B2", "about": "“Materials and methods for nerve grafting” (University of Florida Research Foundation, Inc., priority 2001, dated 2019)", "key": {"rat sciatic nerve": {"tested_on": "rat sciatic nerve", "assay": "Axonal regeneration into acellular interpositional nerve grafts (GAP-43 profiles)", "assay_type": "in vivo", "from_the_text": "Adult (180-200 g) female SPRAGUE DAWLEY rats (HARLAN, Indianapolis, Ind.) were used as nerve donors and recipient hosts. Donor rats were anesthetized with halothane and decapitated. Sciatic nerves were exposed through a gluteal muscle-splitting incision and isolated free of underlying fascia. A 15-mm nerve segment was excised rostral to the bifurcation into common peroneal and tibial nerves. The segments were rinsed with cold sterile Ringer's solution, stabilized by pinning the ends to a thin plastic support, and transferred to a cryogenic vial. The vials were submerged in liquid nitrogen for 2 minutes and then transferred to a 37° C. water bath for 2 minutes. This freeze/thaw cycle was repeated, yielding acellular nerve grafts that were then stored in liquid nitrogen. On the day before grafting, the nerve grafts were warmed to room temperature and incubated in 100 μl phosphate buffered saline pH 7.4 (PBS) containing 2 units/ml chondroitinase ABC (SIGMA, St. Louis, Mo.) or in PBS (vehicle) only for 16 hours at 37° C. The grafts were rinsed twice with Ringer's and kept on ice prior to use. The chondroitinase ABC preparation was highly purified and stated by the manufacturer to be essentially free of protease activity.\nTwelve rats received bilateral acellular nerve grafts, one chondroitinase-treated and one vehicle-treated graft. Host rats were deeply anesthetized using xylazine (15 mg/kg, i.m.) and ketamine (110 mg/kg, i.p.). The sciatic nerve was exposed and supported by a plastic insert placed between the nerve and underlying tissue. The region of nerve halfway between the sciatic notch and bifurcation was first coated with fibrin glue. Using serrated scissors, a 2.5-mm segment of host nerve was excised and replaced with a freshly trimmed 10-mm acellular nerve graft. The graft was coapted to the host nerve stumps by epineurial neurorrhaphy using one 9-0 ETHILON suture at each end. […] The muscle was closed with 4-0 sutures and the skin with wound clips. After recovery from the anesthetic, animals were returned to standard housing.\nNine rats were terminated at 8 days and four at 4 days after grafting. Animals were deeply anesthetized and decapitated. The graft and 3 mm of proximal and distal host nerve were removed, immersed in 4% paraformaldehyde in 0.1 M phosphate buffer (pH 7.4) overnight at 4° C. The specimens were equilibrated with PBS and immersed in 30% sucrose/phosphate buffer for 2 days at 4° C. […]\nThe main grafts were sectioned serially on the transverse plane in recorded measure to assess the extent of axonal growth by microscopy. […] GAP-43-positive axon profiles were scored using IMAGE-PRO PLUS software (MEDIA CYBERNETICS, Silver Springs, Md.). […]"}, "CSPG": {"tested_on": "CSPG", "assay": "CSPG neoepitope immunostaining of human nerve segments treated with chondroitinase", "protocol": "Axonal regeneration was assessed by GAP-43 immunofluorescence and digital image analysis. Tissue sections mounted on slides were washed with PBS and then treated with 0.5% Triton X-100 in PBS for 10 min. The sections were treated with blocking buffer (10% serum in PBS+0.1% Triton X-100) and then incubated overnight at 4° C. with primary antibodies (diluted in blocking buffer). Bound antibodies were labeled with swine anti-rabbit immunoglobulins (DAKO CORPORATION, Carpinteria, Calif.) or goat anti-mouse immunoglobulins (Sigma) FITC-conjugated secondary antibodies for 1 h at room temperature in darkness. The anti-mouse secondary antibody was preadsorbed with rat serum prior to use. The sections were washed, postfixed with 4% paraformaldehyde in PBS, rinsed, and coverslipped in fluorescent mounting media. Affinity-purified rabbit anti-GAP-43 peptide antibody was produced using known methods (Ferguson T A et al. [2000] Mol Cell Neurosci, 16:157-167) and was used at 2 μg/ml. Polyclonal antibody 1918 (CHEMICON INTERNATIONAL, Temecula, Calif.) (1:1000) binds only to the unsaturated disaccharide unit that remains attached to the linkage region of CSPG core protein exposed by digestion with chondroitinase ABC (Bertolotto A et al. [1986] J Neurol Sci 73:233-244). Polyclonal anti-EHS laminin antibody (Sigma) (1:1000) was used to label basal laminae. […]"}}}
{"substance": "chondroitinase ABC", "values": [{"measurement": "axonal penetration vs vehicle-treated grafts", "setting": "rat sciatic nerve; 4-day grafts, 0.3 mm from the host-graft interface, 3 animals", "value": "five-fold greater"}, {"measurement": "average number of axons (GAP-43-immunopositive profiles) entering grafts vs control grafts", "setting": "rat sciatic nerve; 8-day acellular syngrafts, en bloc treated, n=9", "value": "more than three-fold greater"}, {"measurement": "number of axons at the distal ends of grafts vs control", "setting": "rat sciatic nerve; 8-day grafts", "value": "a similar number of axons"}, {"measurement": "propensity of axons to grow within basal laminae", "setting": "rat sciatic nerve; 8-day grafts, GAP-43/laminin double label", "value": "unaltered"}, {"measurement": "CSPG side chain degradation (neoepitope labeling)", "setting": "CSPG", "value": "effectively degraded"}]}
